From patent publication US20230310388A1, “Methods and Compositions for Treating Fungal Infections” (Neoculi Pty Ltd, priority 2020, published 2023)
“And” between values parts separate entries of the source, which are not always exact repeats. Equal values may be shown once.

Tested on: Candida albicans ATCC14053
Experiment: Broth micro-dilution screen at 16 μg/mL and MIC (Example 9)
Format: cell-based
Details: C. albicans ATCC14053; test range 0.25-64 μg/mL; duplicate
Procedure: The antifungal activity of 201 NCL analogs against Candida albicans ATCC14053 in vitro was investigated. A broth micro-dilution method was used, according to CLSI guidelines as described. NCL analogs were dissolved in DMSO and originally screened at a single concentration of 16 μg/mL.

MIC	Structure (SMILES)
0.5 mg/L and 1 mg/L	Cl.N=C(NN=Cc1ccc(F)cc1)NN=Cc1ccc(F)cc1 [NCL021]
8 mg/L and 16 mg/L	COc1ccc(C=NNC(=N)NN=Cc2ccc(OC)cc2)cc1.Cl [NCL027]
2 mg/L and 4 mg/L	Cc1ccc(C=NNC(=N)NN=Cc2ccc(C)cc2)cc1.Cl [NCL038]
4 mg/L and 8 mg/L	Cc1ccccc1/C=N/NC(=N)N/N=C/c1ccccc1C.Cl [NCL039]
8 mg/L and 16 mg/L	Cc1cccc(C=NNC(=N)NN=Cc2cccc(C)c2)c1.Cl [NCL040]
4 mg/L and 8 mg/L	Cl.N=C(NN=Cc1cccc(Cl)c1)NN=Cc1cccc(Cl)c1 [NCL054]
2 mg/L and 4 mg/L	Cl.N=C(NN=Cc1ccc(O)c(O)c1O)NN=Cc1ccc(O)c(O)c1O [NCL105]
2 mg/L and 4 mg/L	Cl.N=C(NN=Cc1ccccc1O)NN=Cc1ccccc1O [NCL107]
4 mg/L and 8 mg/L	CCCc1ccc(C=NNC(=N)NN=Cc2ccc(CCC)cc2)cc1.Cl [NCL121]
1 mg/L	Cl.N=C(NN=Cc1ccc(F)c(F)c1)NN=Cc1ccc(F)c(F)c1 [NCL123]
4 mg/L	C#Cc1cccc(C=NNC(=N)NN=Cc2cccc(C#C)c2)c1.Cl [NCL126]
<1 mg/L	Cl.N=C(NN=Cc1ccc(Br)cc1)NN=Cc1ccc(Br)cc1 [NCL134]
1 mg/L and 2 mg/L	CSc1ccc(C=NNC(=N)NN=Cc2ccc(SC)cc2)cc1.Cl [NCL140]
4 mg/L and 8 mg/L	Cl.N=C(NN=Cc1ccc2[nH]ccc2c1)NN=Cc1ccc2[nH]ccc2c1 [NCL146]
1 mg/L	COc1ccc(C=CC=NNC(=N)NN=CC=Cc2ccc(OC)cc2)cc1.Cl [NCL150]

Same assay, conditions: single concentration 16 μg/mL; Growth or No growth of C. albicans ATCC14053

Structure (SMILES)	Screen at 16 μg/mL
O=C(NN=Cc1ccc(Cl)cc1)NN=Cc1ccc(Cl)cc1 [NCL001]	Growth
O=C(NN=Cc1ccccc1Cl)NN=Cc1ccccc1Cl [NCL002]	Growth
COc1ccc(C=NNC(=O)NN=Cc2ccc(OC)cc2)cc1 [NCL006]	Growth
N#Cc1ccc(C=NNC(=O)NN=Cc2ccc(C#N)cc2)cc1 [NCL007]	Growth
COc1cccc(C=NNC(=O)NN=Cc2cccc(OC)c2)c1 [NCL010]	Growth
O=C(NN=Cc1cccc(C(F)(F)F)c1)NN=Cc1cccc(C(F)(F)F)c1 [NCL011]	Growth
O=C(NN=Cc1ccc(C(F)(F)F)cc1)NN=Cc1ccc(C(F)(F)F)cc1 [NCL012]	Growth
O=C(NN=Cc1ccccc1C(F)(F)F)NN=Cc1ccccc1C(F)(F)F [NCL013]	Growth
Cl.N=C(N)NN=Cc1ccccc1Cl [NCL015]	Growth
Cl.N=C(N)NN=Cc1ccccc1F [NCL016]	Growth
Cl.N=C(N)NN=Cc1cccc(F)c1 [NCL017]	Growth
Cc1ccccc1C=NNC(=O)NN=Cc1ccccc1C [NCL018]	Growth
Cc1cccc(C=NNC(=O)NN=Cc2cccc(C)c2)c1 [NCL019]	Growth
Cl.N=C(NN=Cc1ccc(F)cc1)NN=Cc1ccc(F)cc1 [NCL021]	No growth
Cl.N=C(NN=Cc1ccccc1F)NN=Cc1ccccc1F [NCL022]	Growth
Cl.N#Cc1cccc(C=NNC(=N)NN=Cc2cccc(C#N)c2)c1 [NCL026]	Growth
COc1ccc(C=NNC(=N)NN=Cc2ccc(OC)cc2)cc1.Cl [NCL027]	No growth
COc1ccccc1C=NNC(=N)NN=Cc1ccccc1OC.Cl [NCL028]	Growth
COc1cccc(C=NNC(=N)NN=Cc2cccc(OC)c2)c1.Cl [NCL029]	Growth
Cl.N=C(N)N/N=C/c1ccc(Cl)cc1 [NCL030]	Growth
Cl.N#Cc1ccc(C=NNC(=N)N)cc1 [NCL031]	Growth
Cl.N#Cc1cccc(C=NNC(=N)N)c1 [NCL033]	Growth

Structure (SMILES)	Screen at 16 μg/mL
Cl.N=C(NN=Cc1ccccc1C(F)(F)F)NN=Cc1ccccc1C(F)(F)F [NCL036]	Growth
Cl.N=C(NN=Cc1cccc(C(F)(F)F)c1)NN=Cc1cccc(C(F)(F)F)c1 [NCL037]	Growth
Cc1ccc(C=NNC(=N)NN=Cc2ccc(C)cc2)cc1.Cl [NCL038]	No growth
Cc1ccccc1/C=N/NC(=N)N/N=C/c1ccccc1C.Cl [NCL039]	No growth
Cc1cccc(C=NNC(=N)NN=Cc2cccc(C)c2)c1.Cl [NCL040]	No growth
Cl.N=C(N)N/N=C/c1ccc(C(F)(F)F)cc1 [NCL041]	Growth
Cl.N=C(N)NN=Cc1ccccc1C(F)(F)F [NCL042]	Growth
Cl.N=C(N)NN=Cc1cccc(C(F)(F)F)c1 [NCL043]	Growth
Cc1ccc(/C=N/NC(=N)N)cc1.Cl [NCL044]	Growth
Cc1ccccc1C=NNC(=N)N.Cl [NCL045]	Growth
Cc1cccc(C=NNC(=N)N)c1.Cl [NCL046]	Growth
Cl.N=C(N)NN=Cc1cccc(Cl)c1 [NCL052]	Growth
Cl.N=C(N)NN=Cc1ccc(F)cc1 [NCL053]	Growth
Cl.N=C(NN=Cc1cccc(Cl)c1)NN=Cc1cccc(Cl)c1 [NCL054]	No growth
CC(=NNC(=N)NN=C(C)c1ccc(C(F)(F)F)cc1)c1ccc(C(F)(F)F)cc1.Cl [NCL061]	Growth
Cl.N=C(NN=Cc1ccc2ccccc2c1)NN=Cc1ccc2ccccc2c1 [NCL093]	Growth
Cl.N=C(NN=Cc1ccoc1)NN=Cc1ccoc1 [NCL095]	Growth
Cl.N=C(NN=CC=Cc1ccccc1)NN=CC=Cc1ccccc1 [NCL096]	Growth
Cl.N=C(NN=Cc1cccc(C(=O)O)c1)NN=Cc1cccc(C(=O)O)c1 [NCL098]	Growth
CC(C)(C)c1ccc(/C=N/NC(=N)N/N=C/c2ccc(C(C)(C)C)cc2)cc1.Cl [NCL099]	Growth
Cl.N=C(NN=Cc1ccccc1)NN=Cc1ccccc1 [NCL100]	Growth
Cl.N=C(NN=Cc1cccc(O)c1O)NN=Cc1cccc(O)c1O [NCL101]	No growth

Structure (SMILES)	Screen at 16 μg/mL
Cl.N=C(NN=Cc1ccccc1[N+](=O)[O-])NN=Cc1ccccc1[N+](=O)[O-] [NCL102]	Growth
Cl.N=C(NN=Cc1cc(O)c(O)cc1O)NN=Cc1cc(O)c(O)cc1O [NCL104]	Growth
Cl.N=C(NN=Cc1ccc(O)c(O)c1O)NN=Cc1ccc(O)c(O)c1O [NCL105]	No growth
COc1cc(C=NNC(=N)NN=Cc2cc(O)c(O)c(OC)c2)cc(O)c1O.Cl [NCL106]	Growth
Cl.N=C(NN=Cc1ccccc1O)NN=Cc1ccccc1O [NCL107]	No growth
Cl.N=C(NN=Cc1cccc(O)c1)NN=Cc1cccc(O)c1 [NCL108]	Growth
Cl.N=C(NN=Cc1cccc([N+](=O)[O-])c1)NN=Cc1cccc([N+](=O)[O-])c1 [NCL109]	Growth
N=C(N/N=C/c1ccc(-c2ccccc2)cc1)N/N=C/c1ccc(-c2ccccc2)cc1 [NCL112]	Growth
Cl.N=C(NN=Cc1ccccc1-c1ccccc1)NN=Cc1ccccc1-c1ccccc1 [NCL116]	Growth
COc1cc(C=NNC(=N)NN=Cc2ccc(O)c(OC)c2)ccc1O.Cl [NCL117]	Growth
Cl.N=C(NN=Cc1cc(F)ccc1F)NN=Cc1cc(F)ccc1F [NCL118]	Growth
CC(=O)Nc1ccc(C=NNC(=N)NN=Cc2ccc(NC(C)=O)cc2)cc1.Cl [NCL119]	Growth
CC(C)c1ccc(C=NNC(=N)NN=Cc2ccc(C(C)C)cc2)cc1.Cl [NCL120]	Growth
CCCc1ccc(C=NNC(=N)NN=Cc2ccc(CCC)cc2)cc1.Cl [NCL121]	No growth
Cl.N=C(NN=Cc1ccc(O)c([N+](=O)[O-])c1)NN=Cc1ccc(O)c([N+](=O)[O-])c1 [NCL122]	Growth
Cl.N=C(NN=Cc1ccc(F)c(F)c1)NN=Cc1ccc(F)c(F)c1 [NCL123]	No growth
Cl.N=C(NN=Cc1c(O)ccc2ccccc12)NN=Cc1c(O)ccc2ccccc12 [NCL124]	Growth
COc1ccc(C=NNC(=N)NN=Cc2ccc(OC)c(O)c2)cc1O.Cl [NCL125]	Growth
C#Cc1cccc(C=NNC(=N)NN=Cc2cccc(C#C)c2)c1.Cl [NCL126]	No growth
Cl.N=C(NN=Cc1ccc(Cl)cc1Cl)NN=Cc1ccc(Cl)cc1Cl [NCL127]	Growth
Cl.N=C(NN=Cc1ccccc1Br)NN=Cc1ccccc1Br [NCL129]	Growth
COc1cc(C=NNC(=N)NN=Cc2cc(Br)c(OC)c(OC)c2)cc(Br)c1OC.Cl [NCL130]	Growth

Structure (SMILES)	Screen at 16 μg/mL
Cl.N=C(NN=Cc1cccc(Br)c1)NN=Cc1cccc(Br)c1 [NCL131]	Growth
Cl.N=C(NN=CC1=C(Cl)c2cc(F)ccc2OC1)NN=CC1=C(Cl)c2cc(F)ccc2OC1 [NCL132]	Growth
Cl.N=C(NN=Cc1cc(Br)co1)NN=Cc1cc(Br)co1 [NCL133]	Growth
Cl.N=C(NN=Cc1ccc(Br)cc1)NN=Cc1ccc(Br)cc1 [NCL134]	No growth
CCCCc1ccc(C=NNC(=N)NN=Cc2ccc(CCCC)cc2)cc1.Cl [NCL136]	Growth
Cl.N=C(NN=Cc1c(Cl)cccc1Cl)NN=Cc1c(Cl)cccc1Cl [NCL137]	Growth
Cl.N=C(NN=CC(=Cc1ccccc1)c1ccccc1)NN=CC(=Cc1ccccc1)c1ccccc1 [NCL138]	Growth
CSc1ccc(C=NNC(=N)NN=Cc2ccc(SC)cc2)cc1.Cl [NCL140]	No growth
CC(=NNC(=N)NN=C(C)c1ccccc1)c1ccccc1.Cl [NCL143]	Growth
Cl.N=C(NN=Cc1ccc(Br)o1)NN=Cc1ccc(Br)o1 [NCL144]	Growth
Cl.N=C(NN=Cc1ccc(Cl)o1)NN=Cc1ccc(Cl)o1 [NCL145]	Growth
Cl.N=C(NN=Cc1ccc2[nH]ccc2c1)NN=Cc1ccc2[nH]ccc2c1 [NCL146]	No growth
Cl.N=C(NN=Cc1cnc2ccccc2n1)NN=Cc1cnc2ccccc2n1 [NCL147]	Growth
Cl.N=C(NN=Cc1ccc(C=CC(=O)O)cc1)NN=Cc1ccc(C=CC(=O)O)cc1 [NCL148]	Growth
Cl.N=C(NN=Cc1ccncc1)NN=Cc1ccncc1 [NCL149]	Growth
COc1ccc(C=CC=NNC(=N)NN=CC=Cc2ccc(OC)cc2)cc1.Cl [NCL150]	No growth
Cl.N=C(NN=Cc1ccc(O)cc1)NN=Cc1ccc(O)cc1 [NCL151]	Growth
Cc1cccc(C=NNC(=N)NN=Cc2cccc(C)c2O)c1O.Cl [NCL152]	Growth
CCC(=NNC(=N)NN=C(CC)c1ccc(Cl)cc1)c1ccc(Cl)cc1.Cl [NCL153]	Growth
